Holding throughout (set-up): species or system Tryporyza intacta
One assay concerns the target TintPBP1 (Scirpophaga excerptalis, UniProt A0A345D2V5). The assay is described as follows: Fluorescence competitive binding assay with 1-NPN probe, TintPBP1. To be noted: for Ki: calculated from IC50, 1-NPN probe; for IC50: displacement of 1-NPN (2 μM), 25 °C; for Binding to TintPBP1 in competitive binding (in words): competitor 0.5–10.0 μM. The procedure: (§1) To measure the affinities of the sex pheromones to TintPBP1-3 proteins, we used N-Phenyl-1-naphthylamine (1-NPN) as the fluorescent probe on a Hitachi F-4500 at 25 °C based on the method of Mao et al.[17]. 1-NPN was used as the fluorescent reporter (2 μM) and 0.5–10.0 μM for each competitor was used to test fluorescence competitive binding affinities of sex pheromones. Six compounds were selected and measured in competitive binding assays. The dissociation constant for 1-NPN and binding results were analyzed by Prism software. Each of IC50 values (concentrations of ligands halving the initial fluorescence value of 1-NPN) from competitors were calculated using following equation: Ki=[IC50]/1+[1−NPN]/K1−NPN, where [1-NPN] is the free concentration of 1-NPN and K1−NPN is the dissociation constant of the complex protein/1-NPN.

A further assay deals with TintPBP2 (Scirpophaga excerptalis, UniProt A0A345D2V6). The assay is described as follows: Fluorescence competitive binding assay with 1-NPN probe, TintPBP2. To be noted: for Ki: calculated from IC50, 1-NPN probe; for IC50: displacement of 1-NPN (2 μM), 25 °C; for Binding to TintPBP2 in competitive binding (in words): competitor 0.5–10.0 μM. As to the method:
as §1

In the next assay the target is TintPBP3 (Scirpophaga excerptalis, UniProt A0A345D2V7). Kind of assay: Fluorescence competitive binding assay with 1-NPN probe, TintPBP3. Particulars: for Ki: calculated from IC50, 1-NPN probe; for IC50: displacement of 1-NPN (2 μM), 25 °C; for Binding to TintPBP3 in competitive binding (in words): competitor 0.5–10.0 μM. The procedure: as §1

Usually Ki stands for a dissociation constant, usually derived from enzyme kinetics or from competition with a known ligand. Broadly, the IC50 is the point on the concentration scale where inhibition reaches its midpoint. Higher therefore signals weaker potency.

TintPBP2, sequence (A0A345D2V6 entry or part of it): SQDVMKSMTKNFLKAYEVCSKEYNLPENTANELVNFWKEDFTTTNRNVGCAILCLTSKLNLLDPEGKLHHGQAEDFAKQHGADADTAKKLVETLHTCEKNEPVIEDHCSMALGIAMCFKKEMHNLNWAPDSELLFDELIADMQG
TintPBP3, sequence (A0A345D2V7 entry or part of it): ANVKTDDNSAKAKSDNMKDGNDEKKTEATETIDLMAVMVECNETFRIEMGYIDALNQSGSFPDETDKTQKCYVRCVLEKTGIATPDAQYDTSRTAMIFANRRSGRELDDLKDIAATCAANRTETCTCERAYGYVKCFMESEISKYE
TintPBP1, sequence (A0A345D2V5 entry or part of it): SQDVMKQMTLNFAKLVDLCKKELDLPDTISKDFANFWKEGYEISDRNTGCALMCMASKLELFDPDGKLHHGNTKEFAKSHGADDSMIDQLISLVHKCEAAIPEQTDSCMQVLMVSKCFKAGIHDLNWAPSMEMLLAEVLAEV

As to `CCCC/C=C/CCCCCCCCCC=O` [E11–16: Ald], the Ki is 2.15 ± 0.16 µM at TintPBP1, 3.58 ± 0.13 µM on TintPBP2 and 3.45 ± 0.21 µM at TintPBP3. The IC50 on TintPBP1 was 3.09 ± 0.22 µM; at TintPBP2, 4.78 ± 0.17 µM; at TintPBP3, 4.08 ± 0.24 µM.
In the case of `CCCC/C=C\CCCCCCCCCCCCO` [Z13–18:OH], the “Binding to TintPBP1 in competitive binding (in words)” value (“Binding to TintPBP1” for short) at TintPBP1 is “cannot bind”. The “Binding to TintPBP2 in competitive binding (in words)” value (“Binding to TintPBP2” for short) on TintPBP2 is “cannot bind”. Further, the “Binding to TintPBP3 in competitive binding (in words)” value (“Binding to TintPBP3” for short) at TintPBP3 is on record as “cannot bind”.
As for `CCCC/C=C\CCCCCCCCCC=O` [Z11–16: Ald], the values for the Ki at TintPBP1, at TintPBP2 and on TintPBP3 were 2.95 ± 0.04 µM, 2.83 ± 0.11 µM and 3.96 ± 0.28 µM, respectively. Also, the IC50 on TintPBP1 stood at 4.27 ± 0.05 µM; at TintPBP2, 3.81 ± 0.15 µM; at TintPBP3 it was 4.66 ± 0.33 µM.
On to `CCCC/C=C\CCCCCCCCCCO` [Z11–16:OH], for which the “Binding to TintPBP1” value on TintPBP1 is “cannot bind”. The “Binding to TintPBP2” value on TintPBP2 is reported as “cannot bind”. Moreover, at TintPBP3, the “Binding to TintPBP3” value was “cannot bind”.
Regarding `CCCC/C=C\CCCCCCCCCCOC(C)=O` [Z11–16:AC], at TintPBP1, the “Binding to TintPBP1” value was “cannot bind”. At TintPBP2, the “Binding to TintPBP2” value was “cannot bind”. For the same molecule, the “Binding to TintPBP3” value on TintPBP3 was “cannot bind”.
Take `CCCC/C=C\CCCCCCCCCCCCOC(C)=O` [Z13–18:AC]: at TintPBP1, the “Binding to TintPBP1” value is given as “cannot bind”. For the same molecule, the “Binding to TintPBP2” value at TintPBP2 is reported as “cannot bind”. For the same molecule, the “Binding to TintPBP3” value on TintPBP3 is on record as “cannot bind”.

(Values after publication PMC6050284, “Molecular characterization and functional differentiation of three pheromone-binding proteins from Tryporyza intacta” (Scientific Reports, 2018).)
